Experimental data: ChEMBL document CHEMBL1148772, “Inhibition of Mycobacterium tuberculosis, Mycobacterium bovis, and Mycobacterium avium by novel dideoxy nucleosides” (J Med Chem, 2007)
Converted amounts (≈) assume the structure as drawn.

Tests used:
[1] = Cytotoxicity against Vero cells by MTT assay; assay type: cell-based; details: African green monkey
[2] = test system: Mycobacterium tuberculosis; experiment: Antimycobacterial activity against Mycobacterium tuberculosis H37Ra by microplate alamar blue assay; assay type: functional
Mycobacterium avium [3] = experiment: Antimycobacterial activity against Mycobacterium avium ATCC 25291 at 50 uM by microplate alamar blue assay; assay type: functional
[4] = test system: Mycobacterium tuberculosis; experiment: Antimycobacterial activity against Mycobacterium tuberculosis H37Ra at 50 uM by microplate alamar blue assay; assay type: functional
[5] = test system: Mycobacterium tuberculosis; experiment: Antimycobacterial activity against Mycobacterium tuberculosis H37Ra at 10 uM by microplate alamar blue assay; assay type: functional
Mycobacterium avium [6] = experiment: Antimycobacterial activity against Mycobacterium avium ATCC 25291 at 100 uM by microplate alamar blue assay; assay type: functional
Mycobacterium avium [7] = experiment: Antimycobacterial activity against Mycobacterium avium ATCC 25291 by microplate alamar blue assay; assay type: functional
[8] = Cytotoxicity against human foreskin fibroblast cells by MTT assay; assay type: cell-based
[9] = test system: Mycobacterium tuberculosis; experiment: Antimycobacterial activity against Mycobacterium tuberculosis H37Ra at 100 uM by microplate alamar blue assay; assay type: functional
[10] = test system: Mycobacterium tuberculosis; experiment: Antimycobacterial activity against Mycobacterium tuberculosis H37Ra at 1 uM by microplate alamar blue assay; assay type: functional
Mycobacterium avium [11] = experiment: Antimycobacterial activity against Mycobacterium avium ATCC 25291 at 2 uM by microplate alamar blue assay; assay type: functional
Mycobacterium avium [12] = experiment: Antimycobacterial activity against Mycobacterium avium ATCC 25291 at 10 uM by microplate alamar blue assay; assay type: functional
Streptococcus pneumoniae = experiment: Antibacterial activity against Streptococcus pneumoniae ATCC 49619; assay type: functional
Streptococcus pyogenes = experiment: Antibacterial activity against Streptococcus pyogenes ATCC 19615; assay type: functional
Bacillus subtilis = experiment: Antibacterial activity against Bacillus subtilis ATCC 6633; assay type: functional

Row | SMILES | MIC90 [2] [µg/mL] | inhibition at 50 µM [4] [%] | inhibition at 10 µM [5] [%] | inhibition at 100 µM (Mycobacterium avium [6]) [%] | inhibition at 100 µM [9] [%] | also measured
1 | CCCCCCCCCCC#Cc1cn([C@H]2C[C@H](F)[C@@H](CO)O2)c(=O)[nH]c1=O | 10 (≈ 25.3 µM) | 100 | 50 | 90 | 100 | CC50 [1]: > 100 µg/mL; inhibition at 50 µM (Mycobacterium avium [3]): 40%; MIC90 (Mycobacterium avium [7]): 100 µg/mL (≈ 253 µM); CC50 [8]: > 100 µg/mL
2 | O=c1[nH]c(=S)c(Cl)cn1[C@H]1CC[C@@H](CO)O1 | 50 (≈ 190 µM) | 50 | – | 0 | 100 | –
3 | Nc1nc(N)c2ncn([C@H]3CC[C@@H](CO)O3)c2n1 | – | – | – | 0 | 25 | –
4 | CCCCCCCCCCCCC#Cc1cn(C2CC(F)C(CO)O2)c(=O)[nH]c1=O (stereo not drawn) | 1 (≈ 2.37 µM) | 100 | 100 | 90 | 100 | CC50 [1]: > 100 µg/mL; inhibition at 1 µM [10]: 80%; MIC90 (Mycobacterium avium [7]): 100 µg/mL (≈ 237 µM); CC50 [8]: > 100 µg/mL
5 | CC[C@H]1OC(=O)[C@H](C)[C@@H](O[C@H]2C[C@@](C)(OC)[C@@H](O)[C@H](C)O2)[C@H](C)[C@@H](O[C@@H]2O[C@H](C)C[C@H](N(C)C)[C@H]2O)[C@](C)(OC)C[C@@H](C)C(=O)[C@H](C)[C@@H](O)[C@]1(C)O [CLARITHROMYCIN] | – | – | – | – | – | MIC90 (Mycobacterium avium [7]): 2 µg/mL (≈ 2.67 µM); inhibition at 2 µM (Mycobacterium avium [11]): 95%
6 | Nc1ccn([C@H]2CC[C@@H](CO)O2)c(=O)n1 [ZALCITABINE] | – | – | – | 0 | 0 | –
7 | CCCCCCCCC#Cc1cn([C@H]2C[C@H](F)[C@@H](CO)O2)c(=O)[nH]c1=O | 10 (≈ 27.3 µM) | 100 | 25 | 50 | 100 | CC50 [1]: > 100 µg/mL; CC50 [8]: > 100 µg/mL
8 | CCCc1ccc(C#Cc2cn([C@H]3C[C@H](F)[C@@H](CO)O3)c(=O)[nH]c2=O)cc1 | 50 (≈ 134 µM) | 100 | 50 | 25 | 100 | –
9 | CC(=O)OC[C@@H]1CC[C@H](n2cc(Cl)c(=O)[nH]c2=O)O1 | – | – | – | 0 | 0 | –
10 | CO[C@H]1/C=C/O[C@@]2(C)Oc3c(C)c(O)c4c(O)c(c(/C=N/N5CCN(C)CC5)c(O)c4c3C2=O)NC(=O)/C(C)=C\C=C\[C@H](C)[C@H](O)[C@@H](C)[C@@H](O)[C@@H](C)[C@H](OC(C)=O)[C@@H]1C [RIFAMPIN] | 0.5 (≈ 0.608 µM) | – | – | – | – | MIC90 (Mycobacterium avium [7]): 2 µg/mL (≈ 2.43 µM); inhibition at 2 µM (Mycobacterium avium [11]): 90%
11 | O=c1[nH]c(=O)n([C@H]2CC[C@@H](CO)O2)cc1C#Cc1ccccc1 | – | 25 | – | 25 | 25 | inhibition at 50 µM (Mycobacterium avium [3]): 25%; inhibition at 10 µM (Mycobacterium avium [12]): 25%
12 | CCCCCCCCCCCC#Cc1cn([C@H]2C[C@H](F)[C@@H](CO)O2)c(=O)[nH]c1=O | 10 (≈ 24.5 µM) | 100 | 60 | 25 | 100 | CC50 [1]: > 100 µg/mL; CC50 [8]: > 100 µg/mL
13 | COc1nc(N)nc2c1ncn2[C@H]1CC[C@@H](CO)O1 [METACAVIR] | – | – | – | 20 | 0 | inhibition at 50 µM (Mycobacterium avium [3]): 20%
14 | CC(=O)OC[C@@H]1CC[C@H](n2ccc(=O)[nH]c2=O)O1 | – | – | – | 0 | 0 | –
15 | O=c1[nH]c(=O)n([C@H]2CC[C@@H](CO)O2)cc1Br | – | – | – | 0 | 0 | –
16 | CCCCCCCCCCCCC#Cc1cn([C@H]2CC[C@@H](CO)O2)c(=O)[nH]c1=O | 10 (≈ 24.7 µM) | 100 | 50 | 100 | 100 | CC50 [1]: > 100 µg/mL; inhibition at 50 µM (Mycobacterium avium [3]): 50%; inhibition at 1 µM [10]: 25%; MIC90 (Mycobacterium avium [7]): 50 µg/mL (≈ 124 µM); CC50 [8]: > 100 µg/mL
17 | CCSc1nc(N)nc2c1ncn2[C@H]1CC[C@@H](CO)O1 | 10 (≈ 33.9 µM) | 100 | 35 | 25 | 100 | inhibition at 50 µM (Mycobacterium avium [3]): 25%

Row | SMILES | MIC90 [2] [µg/mL] | inhibition at 50 µM [4] [%] | inhibition at 10 µM [5] [%] | inhibition at 100 µM (Mycobacterium avium [6]) [%] | inhibition at 100 µM [9] [%] | also measured
18 | CCCCCCCCC#Cc1cn([C@H]2CC[C@@H](CO)O2)c(=O)[nH]c1=O | 1 (≈ 2.87 µM) | 100 | 100 | 90 | 100 | CC50 [1]: > 100 µg/mL; MIC (Streptococcus pneumoniae): 100 µg/mL (≈ 287 µM); inhibition at 50 µM (Mycobacterium avium [3]): 25%; MIC (Streptococcus pyogenes): 100 µg/mL (≈ 287 µM); inhibition at 1 µM [10]: 50%; inhibition at 10 µM (Mycobacterium avium [12]): 25%; MIC90 (Mycobacterium avium [7]): 100 µg/mL (≈ 287 µM); MIC (Bacillus subtilis): 100 µg/mL (≈ 287 µM); CC50 [8]: > 100 µg/mL
19 | NC(=O)c1cn([C@H]2CC[C@@H](CO)O2)c2ncnc(N)c12 | – | – | – | 0 | 0 | –
20 | CCCCCCCCCC#Cc1cn([C@H]2CC[C@@H](CO)O2)c(=O)[nH]c1=O | 1 (≈ 2.76 µM) | 100 | 100 | 100 | 100 | CC50 [1]: > 100 µg/mL; inhibition at 50 µM (Mycobacterium avium [3]): 100%; inhibition at 1 µM [10]: 80%; inhibition at 10 µM (Mycobacterium avium [12]): 50%; MIC90 (Mycobacterium avium [7]): 10 µg/mL (≈ 27.6 µM); MIC (Bacillus subtilis): 100 µg/mL (≈ 276 µM); CC50 [8]: > 100 µg/mL
21 | CC(=O)OC[C@@H]1CC[C@H](n2cc(Cl)c(=S)[nH]c2=O)O1 | 50 (≈ 164 µM) | 60 | – | 0 | 100 | –
22 | O=c1[nH]c(=O)n([C@H]2CC[C@@H](CO)O2)cc1Cl | – | – | – | 0 | 0 | –
23 | CCCC#Cc1cn([C@H]2CC[C@@H](CO)O2)c(=O)[nH]c1=O | – | – | – | 0 | 50 | –
24 | Nc1nc(=O)n([C@H]2CC[C@@H](CO)O2)cc1I | – | – | – | 0 | 0 | –
25 | CCCCCCCCCCCC#Cc1cn([C@H]2CC[C@@H](CO)O2)c(=O)[nH]c1=O | 10 (≈ 25.6 µM) | 100 | 50 | 100 | 100 | CC50 [1]: > 100 µg/mL; inhibition at 50 µM (Mycobacterium avium [3]): 100%; inhibition at 1 µM [10]: 50%; inhibition at 10 µM (Mycobacterium avium [12]): 80%; MIC90 (Mycobacterium avium [7]): 10 µg/mL (≈ 25.6 µM); CC50 [8]: > 100 µg/mL
26 | Nc1nc(F)c2ccn([C@H]3CC[C@@H](CO)O3)c2n1 | – | 40 | 25 | 100 | 50 | inhibition at 50 µM (Mycobacterium avium [3]): 100%; inhibition at 10 µM (Mycobacterium avium [12]): 35%; MIC90 (Mycobacterium avium [7]): 10 µg/mL (≈ 39.6 µM)
27 | Nc1nc(O)c2ncn([C@H]3CC[C@@H](CO)O3)c2n1 | – | – | – | 0 | 0 | –
28 | Nc1nc(=O)n([C@H]2CC[C@@H](CO)O2)cc1Br | – | – | 50 | 0 | – | –
29 | Cc1cn([C@H]2CC[C@@H](CO)O2)c(=O)nc1N | – | 50 | 50 | 0 | 50 | –
30 | Nc1ncnc2c1ncn2[C@H]1CC[C@@H](CO)O1 | – | – | – | 0 | 0 | –
31 | Nc1ccn([C@@H]2CS[C@H](CO)O2)c(=O)n1 [LAMIVUDINE] | – | – | – | 0 | 0 | –
32 | N#Cc1cn(C2CCC(CO)O2)c2ncnc(N)c12 (stereo not drawn) | – | 40 | – | 0 | 50 | –
33 | CCCCCC#Cc1cn([C@H]2C[C@H](F)[C@@H](CO)O2)c(=O)[nH]c1=O | – | – | – | 0 | 50 | –
